Laboratory results taken from ChEMBL document CHEMBL3885861, “Open TG-GATES”.

Organism: Rattus norvegicus
Test: Open TG-GATES - Regimen: Daily Repeat
Format: toxicity, organism-based, Sprague-Dawley
Design: regimen Daily Repeat, gender Male, age 6 weeks
Conditions: in vivo, po, 400 mg/kg, route gavage, dose level Low; for APTT / Bas / Eos / Fbg / Hb / Ht / Lym / MCH / MCHC / MCV / Mono / Neu / PT / Plat / RBC / Ret / WBC: tissue Blood; for KIDNEY_L / KIDNEY_R / KIDNEY_TOTAL: tissue Kidney; for LIVER: tissue Liver; for A/G / ALP / ALT / AST / BUN / CRE / Ca / Cl / DBIL / GLC / IP / K / LDH / Na / PL / RALB / TBIL / TC / TG / TP / gamma-GTP: tissue Plasma

SMILES: CCO [ALCOHOL]
- TERMINAL_BW (72 h, time 3 day): 236 g
- APTT (72 h, time 3 day): 17.7 s
- Bas (72 h, time 3 day): 0%
- Eos (72 h, time 3 day): 1%
- Fbg (72 h, time 3 day): 209.2 mg/dL
- Hb (72 h, time 3 day): 13.4 g/dL
- Ht (72 h, time 3 day): 39.9%
- Lym (72 h, time 3 day): 73.4%
- MCH (72 h, time 3 day): 21.9 pg
- MCHC (72 h, time 3 day): 33.7%
- MCV (72 h, time 3 day): 65 fL
- Mono (72 h, time 3 day): 8.4%
- Neu (72 h, time 3 day): 17%
- PT (72 h, time 3 day): 11.1 s
- Plat (72 h, time 3 day): 134.3 x10_4/uL
- RBC (72 h, time 3 day): 614.8 x10_4/ul
- Ret (72 h, time 3 day): 7.6%
- WBC (72 h, time 3 day): 100.6 x10_2/uL
- KIDNEY_L (72 h, time 3 day): 1 g
- KIDNEY_R (72 h, time 3 day): 1.1 g
- KIDNEY_TOTAL (72 h, time 3 day): 2.1 g
- LIVER (72 h, time 3 day): 11.5 g
- A/G (72 h, time 3 day): 2.3
- ALP (72 h, time 3 day): 965.4 IU/L
- ALT (72 h, time 3 day): 33 IU/L
- AST (72 h, time 3 day): 63.8 IU/L
- BUN (72 h, time 3 day): 17.2 mg/dL
- CRE (72 h, time 3 day): 0.5 mg/dL
- Ca (72 h, time 3 day): 11.1 mg/dL
- Cl (72 h, time 3 day): 104.4 meq/L
- DBIL (72 h, time 3 day): 0.022 mg/dL
- GLC (72 h, time 3 day): 198 mg/dL
- IP (72 h, time 3 day): 7.9 mg/dL
- K (72 h, time 3 day): 4.5 meq/L
- LDH (72 h, time 3 day): 103.4 IU/L
- Na (72 h, time 3 day): 140.6 meq/L
- PL (72 h, time 3 day): 140.6 mg/dL
- RALB (72 h, time 3 day): 4 g/dL
- TBIL (72 h, time 3 day): 0.3 mg/dL
- TC (72 h, time 3 day): 73 mg/dL
- TG (72 h, time 3 day): 82.8 mg/dL
- TP (72 h, time 3 day): 5.7 g/dL
- gamma-GTP (72 h, time 3 day): 2.4 IU/L
- TERMINAL_BW ([…], time 7 day): 263.9 g
- TERMINAL_BW ([…], time 14 day): 307 g
- TERMINAL_BW ([…], time 28 day): 352 g
- APTT ([…], time 7 day): 17.6 s
- Bas ([…], time 7 day): 0%
- Eos ([…], time 7 day): 0.8%
- Fbg ([…], time 7 day): 219.6 mg/dL
- Hb ([…], time 7 day): 14.1 g/dL
- Ht ([…], time 7 day): 41.5%
- Lym ([…], time 7 day): 79.6%
- MCH ([…], time 7 day): 21.1 pg
- MCHC ([…], time 7 day): 34.1%
- MCV ([…], time 7 day): 62 fL
- Mono ([…], time 7 day): 5.2%
- Neu ([…], time 7 day): 14.2%
- PT ([…], time 7 day): 11.2 s
- Plat ([…], time 7 day): 133.9 x10_4/uL
- RBC ([…], time 7 day): 669.2 x10_4/ul
- Ret ([…], time 7 day): 5.7%
- WBC ([…], time 7 day): 101.8 x10_2/uL
- APTT ([…], time 14 day): 16.7 s
- Bas ([…], time 14 day): 0%
- Eos ([…], time 14 day): 1%
- Fbg ([…], time 14 day): 217.6 mg/dL
- Hb ([…], time 14 day): 15 g/dL
- Ht ([…], time 14 day): 43.7%
- Lym ([…], time 14 day): 80.6%
- MCH ([…], time 14 day): 20.2 pg
- MCHC ([…], time 14 day): 34.3%
- MCV ([…], time 14 day): 58.9 fL
- Mono ([…], time 14 day): 5.6%
- Neu ([…], time 14 day): 12.8%
- PT ([…], time 14 day): 11.3 s
- Plat ([…], time 14 day): 127.7 x10_4/uL
- RBC ([…], time 14 day): 742.4 x10_4/ul
- Ret ([…], time 14 day): 4.2%
- WBC ([…], time 14 day): 122.9 x10_2/uL
- APTT ([…], time 28 day): 17.2 s
- Bas ([…], time 28 day): 0%
- Eos ([…], time 28 day): 1.6%
- Fbg ([…], time 28 day): 212 mg/dL
- Hb ([…], time 28 day): 15.7 g/dL
- Ht ([…], time 28 day): 46.9%
- Lym ([…], time 28 day): 80.4%
- MCH ([…], time 28 day): 18.8 pg
- MCHC ([…], time 28 day): 33.6%
- MCV ([…], time 28 day): 55.9 fL
- Mono ([…], time 28 day): 6%
- Neu ([…], time 28 day): 12.4%
- PT ([…], time 28 day): 11.3 s
- Plat ([…], time 28 day): 126.5 x10_4/uL
- RBC ([…], time 28 day): 839 x10_4/ul
- Ret ([…], time 28 day): 7.1%
- WBC ([…], time 28 day): 104.7 x10_2/uL
- KIDNEY_L ([…], time 7 day): 1.1 g
- KIDNEY_R ([…], time 7 day): 1.1 g
- KIDNEY_TOTAL ([…], time 7 day): 2.2 g
- KIDNEY_L ([…], time 14 day): 1.2 g
- KIDNEY_R ([…], time 14 day): 1.2 g
- KIDNEY_TOTAL ([…], time 14 day): 2.3 g
- KIDNEY_L ([…], time 28 day): 1.3 g
- KIDNEY_R ([…], time 28 day): 1.3 g
- KIDNEY_TOTAL ([…], time 28 day): 2.6 g
- LIVER ([…], time 7 day): 12.6 g
- LIVER ([…], time 14 day): 13.1 g
- LIVER ([…], time 28 day): 13.5 g
- A/G ([…], time 7 day): 2.3
- ALP ([…], time 7 day): 771.4 IU/L
- ALT ([…], time 7 day): 33.2 IU/L
- AST ([…], time 7 day): 63.4 IU/L
- BUN ([…], time 7 day): 20.8 mg/dL
- CRE ([…], time 7 day): 0.5 mg/dL
- Ca ([…], time 7 day): 10.6 mg/dL
- Cl ([…], time 7 day): 104.6 meq/L
- DBIL ([…], time 7 day): 0 mg/dL
- GLC ([…], time 7 day): 197 mg/dL
- IP ([…], time 7 day): 8.1 mg/dL
- K ([…], time 7 day): 4.7 meq/L
- LDH ([…], time 7 day): 95 IU/L
- Na ([…], time 7 day): 141.6 meq/L
- PL ([…], time 7 day): 158.2 mg/dL
- RALB ([…], time 7 day): 4.1 g/dL
- TBIL ([…], time 7 day): 0.4 mg/dL
- TC ([…], time 7 day): 76.2 mg/dL
- TG ([…], time 7 day): 156.4 mg/dL
- TP ([…], time 7 day): 5.8 g/dL
- gamma-GTP ([…], time 7 day): 1.4 IU/L
- A/G ([…], time 14 day): 2
- ALP ([…], time 14 day): 804.6 IU/L
- ALT ([…], time 14 day): 36 IU/L
- AST ([…], time 14 day): 59.2 IU/L
- BUN ([…], time 14 day): 19.2 mg/dL
- CRE ([…], time 14 day): 0.5 mg/dL
- Ca ([…], time 14 day): 11 mg/dL
- Cl ([…], time 14 day): 105.2 meq/L
- DBIL ([…], time 14 day): 0.028 mg/dL
- GLC ([…], time 14 day): 207.4 mg/dL
- IP ([…], time 14 day): 7.4 mg/dL
- K ([…], time 14 day): 4.2 meq/L
- LDH ([…], time 14 day): 103.2 IU/L
- Na ([…], time 14 day): 142.2 meq/L
- PL ([…], time 14 day): 150.8 mg/dL
- RALB ([…], time 14 day): 3.9 g/dL
- TBIL ([…], time 14 day): 0.4 mg/dL
- TC ([…], time 14 day): 73 mg/dL
- TG ([…], time 14 day): 116.8 mg/dL
- TP ([…], time 14 day): 5.9 g/dL
- gamma-GTP ([…], time 14 day): 0.6 IU/L
- A/G ([…], time 28 day): 1.6
- ALP ([…], time 28 day): 710 IU/L
- ALT ([…], time 28 day): 30.2 IU/L
- AST ([…], time 28 day): 64 IU/L
- BUN ([…], time 28 day): 20 mg/dL
- CRE ([…], time 28 day): 0.6 mg/dL
- Ca ([…], time 28 day): 10.4 mg/dL
- Cl ([…], time 28 day): 107 meq/L
- DBIL ([…], time 28 day): 0.002 mg/dL
- GLC ([…], time 28 day): 205.6 mg/dL
- IP ([…], time 28 day): 6.4 mg/dL
- K ([…], time 28 day): 4.3 meq/L
- LDH ([…], time 28 day): 96.4 IU/L
- Na ([…], time 28 day): 140.4 meq/L
- PL ([…], time 28 day): 141.4 mg/dL
- RALB ([…], time 28 day): 3.8 g/dL
- TBIL ([…], time 28 day): 0.3 mg/dL
- TC ([…], time 28 day): 69.4 mg/dL
- TG ([…], time 28 day): 113.6 mg/dL
- TP ([…], time 28 day): 6.1 g/dL
- gamma-GTP ([…], time 28 day): 1.4 IU/L
